pIC50: −log10 of the molar value. Where a name gives a salt, the structure may show the parent alone.
Tests used:
Water solubility = assay type: physicochemical
Experimental: The sample was sonicated for a period of up to 20 minutes. If a solution was not obtained, further solvent was added and the process was repeated until a clear solution was obtained, and the results were recorded. Solutions used were 50 mM potassium biphthalate (pH 4); 100 mM glycine (pH 9); 25 mM sodium carbonate and 25 mM sodium bicarbonate (pH 10); or deionized water (DI).

Rats = test: Anti-inflammatory activity, carrageenan paw; assay type: in vivo, rat; settings: 10 mg/kg, swelling after 3 hours
Experimental: Carrageenan (Type λ) was suspended in sterile PBS at 1% (w/v), autoclaved for 30 minutes, and stored at room temperature. Rats were pretreated with vehicle or AK inhibitor (10 mg/kg) by oral gavage or i.p. administration and the volume of the left hind paw was measured using a water displacement plethysmometer (Stoelting Co., Wood Dale, Ill.). One hour after oral treatment or 30 minutes after i.p. treatment, the rats were briefly anesthetized, and 0.1 ml of the carrageenan solution was injected subcutaneously into the planar surface of the left hind paw. The ensuing paw swelling was measured by plethysmometry after 3 hours. The paw volume in millileters was subtracted from the pre-injection paw volume. Data are presented as the percent inhibition of paw swelling in AK inhibitor treated animals, compared to vehicle treated control animals.

[1] = molecular target: partially purified pig heart adenosine kinase (Sus scrofa, UniProt A0A5G2R0F5); test: biochemical; settings: pig heart adenosine kinase; 0.5 μM adenosine, pH 7.0, 20 minutes at 37° C; read-out: AK Inhibition (IC50)
Sequence of partially purified pig heart adenosine kinase (A0A5G2R0F5 1-362): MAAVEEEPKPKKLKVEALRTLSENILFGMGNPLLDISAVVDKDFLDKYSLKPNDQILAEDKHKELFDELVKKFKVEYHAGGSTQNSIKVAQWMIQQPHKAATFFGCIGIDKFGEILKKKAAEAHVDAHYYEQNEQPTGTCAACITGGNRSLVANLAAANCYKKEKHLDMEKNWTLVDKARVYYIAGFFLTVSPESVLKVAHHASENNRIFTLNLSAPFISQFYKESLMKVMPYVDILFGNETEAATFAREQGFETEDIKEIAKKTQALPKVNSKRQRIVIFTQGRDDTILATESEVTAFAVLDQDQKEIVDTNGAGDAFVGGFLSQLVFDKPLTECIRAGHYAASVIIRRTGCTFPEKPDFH
Experimental: Adenosine kinase activity was measured essentially as described by Yamada et al Biochim. Biophys. Acta 660, 36-43 (1988) with a few minor modifications. Assay mixtures contained 50 mM TRIS-maleate buffer, pH 7.0, 0.1% BSA, 1 mM ATP 1 mM MgCl2, 0.5 μM [U-^14 C] adenosine (400-600 mCi/mmol) and varying duplicate concentrations of inhibitor. The reactions were initiated by addition of approximately 0.1 μU partially purified pig heart adenosine kinase, where one unit is defined as that amount of enzyme required to phosphorylate 1 μmol adenosine per minute. The reactions were incubated for 20 minutes at 37° C. The assay was quenched upon spotting 30 μL aliquots onto 2 cm^2 pieces of Whatman DE81 anion exchange paper. The paper squares were washed for 3 minutes in 6 L distilled/deionized water to remove the unreacted adenosine. […] The amount of ^14 C-AMP was quantified by scintillation counting.

[2] = ip, 30 minutes before carrageenan
[3] = po, one hour before carrageenan
[4] = pH 4 (50 mM potassium biphthalate)

| SMILES | Carrageenan Paw (% inhibition) of paw swelling (Rats; [2]) | Carrageenan Paw (% inhibition) of paw swelling (Rats; [3]) | pIC50 [1] | further results |
| --- | --- | --- | --- | --- |
| C[C@H]1O[C@@H](n2cc(-c3ccccc3)c3c(Nc4ccccc4)ncnc32)[C@H](O)[C@@H]1O [5-phenyl-4-N-phenylamino-7-(5-deoxy-1-β-D-ribofuranosyl)pyrrolo[2,3-d]pyrimidine, reference compound] | – | – | – | water solubility (Water solubility; pH suitable for i.v. administration (e.g. pH 4 to 10)): less than 20 μg/ml |
| C[C@H]1O[C@@H](n2cc(-c3ccccc3)c3c(Nc4ccc(CCN5CCNCC5)cc4)ncnc32)[C@H](O)[C@@H]1O [Compound 4, 4-N[2-(1-piperazino)ethylphenyl]amino-5-phenyl-7-(5-deoxy-β-D-ribofuranosyl)pyrrolo[2,3-d]pyrimidine] | 39.9% | 2.5% | – | solubility (Water solubility; [4]): > 1000 µg/mL |
| CCN(CC)CCNCCc1ccc(Nc2ncnc3c2c(-c2ccccc2)cn3[C@@H]2O[C@H](C)[C@@H](O)[C@H]2O)cc1 [Compound 5, 4-N[2-(2-N,N-diethylaminoethyleneamino)ethylphenyl]amino-5-phenyl-7-(5-deoxy-β-D-ribofuranosyl)pyrrolo[2,3-d]pyrimidine] | -3.4% | 4.1% | 9.00 | solubility (Water solubility; deionized water (DI)): > 5000 µg/mL |
| CCN(CC)CCc1ccc(Nc2ncnc3c2c(-c2ccccc2)cn3[C@@H]2O[C@H](C)[C@@H](O)[C@H]2O)cc1 [Compound 6, 4-N[2-N,N-diethylaminoethylphenyl]amino-5-phenyl-7-(5-deoxy-β-D-ribofuranosyl)pyrrolo[2,3-d]pyrimidine] | – | – | 9.00 | solubility (Water solubility; [4]): > 1000 µg/mL |
| C[C@H]1O[C@@H](n2cc(-c3ccccc3)c3c(Nc4ccc(NS(=O)(=O)C(F)(F)F)cc4)ncnc32)[C@H](O)[C@@H]1O [Compound 8, 4-N-(4-N-trifluoromethanesulfonylaminophenyl)amino-5-phenyl-7-(5-deoxy-1-β-D-ribofuranosyl) pyrrolo(2,3-d)pyrimidine] | – | – | – | solubility (Water solubility; sodium carbonate/sodium bicarbonate buffer, pH 10 (25 mM sodium carbonate and 25 mM sodium bicarbonate)): > 1000 µg/mL |
| C[C@H]1O[C@@H](n2cc(-c3ccccc3)c3c(Nc4ccc(CCN)cc4)ncnc32)[C@H](O)[C@@H]1O [Compound 22, 4-N-(2-Aminoethylphenyl)amino-5-phenyl-7-(5-deoxy-β-D-ribofuranosyl)pyrrolo[2,3-d]pyrimidine] | 31.6% | 12.4% | – | solubility (Water solubility; [4]): > 1000 µg/mL |
| C[C@H]1O[C@@H](n2cc(-c3ccccc3)c3c(Nc4ccc(C(N)=NO)cc4)ncnc32)[C@H](O)[C@@H]1O [Compound 37, 4-N-(4-amidoximephenyl)amino-5-phenyl-7-(5-deoxy-1-β-D-ribofuranosylpyrrolo[2,3-d]pyrimidine hydrochloride] | – | – | 8.30 | – |
| C[C@H]1O[C@@H](n2cc(I)c3c(NCc4cccnc4)ncnc32)[C@H](O)[C@@H]1O [Compound 44, 4-N-(3-pyridylmethylamino)-5-iodo-7-(5-deoxy-1-β-D-ribofuranosyl)pyrrolo[2,3-d]pyrimidine] | – | – | 6.92 | – |
| C[C@H]1O[C@@H](n2cc(I)c3c(NCc4nc5ccccc5[nH]4)ncnc32)[C@H](O)[C@@H]1O [Compound 45, 4-N-(2-benzimidazolylmethyl)amino-5-iodo-7-(5-deoxy-1-β-D-ribofuranosyl) pyrrolo[(2,3-d)]pyrimidine] | – | – | 6.30 | – |
| OC[C@@H]1O[C@@H](n2cc(I)c3c(NCc4ccccn4)ncnc32)[C@H](O)[C@@H]1O [Compound 46, 4-N-(2-pyridylmethyl)amino-5-iodo-7-(α-L-lyxofuranosyl)pyrrolo(2,3-d)pyrimidine] | – | – | 6.66 | – |
| C[C@H]1O[C@@H](n2cc(-c3cccnc3)c3c(Nc4ccccc4)ncnc32)[C@H](O)[C@@H]1O [Compound 47, 4-N-Phenylamino-5-(3-pyridino)-7-(5-deoxy-1-β-D-ribofuranosyl) pyrrolo[2,3-d]pyrimidine] | -4.4% | 9.8% | 7.26 | – |
| C[C@H]1O[C@@H](n2cc(-c3cccnc3)c3c(NCc4ccccn4)ncnc32)[C@H](O)[C@@H]1O [Compound 48, 4-N-(2-pyridylmethyl)amino-5-(3-pyridino)-7-(5-deoxy-1-β-D-ribofuranosyl)pyrrolo[2,3-d]pyrimidine] | – | – | 6.52 | – |
